Data as given in the supplement of paper PMC4862054.

System: MDA-MB-436
Assay: drug sensitivity score (DSS), CellTox Green (DSS (AUC-based score)); higher = stronger drug effect (viability inhibition or cytotoxicity); extreme values may be limits of the assay
Details: incubation time: 72 h
In short: (§1)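 After 72 h of incubation in 384-well plates with compound at 5 concentrations (10-fold steps, 10,000-fold range set per compound), breast cancer cell lines seeded in 20 µl suspension were read first for CellTox Green fluorescence at 485/520 nm. CellTiter-Glo luminescence was measured next, after 10 min at room temperature. Normalisation on each plate used 0.1 % DMSO and a positive kill control, and the drug sensitivity score was computed from the area under the fitted dose-response curve.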

SMILES | drug sensitivity score
CC(=O)[C@]1(O)Cc2c(O)c3c(c(O)c2[C@@H](O[C@H]2C[C@H](N)[C@H](O)[C@H](C)O2)C1)C(=O)c1ccccc1C3=O [Idarubicin] | 0
C/C(=C\c1csc(C)n1)[C@@H]1C[C@@H]2O[C@]2(C)CCC[C@H](C)[C@H](O)[C@@H](C)C(=O)C(C)(C)[C@@H](O)CC(=O)N1 [Ixabepilone] | 0
C=CCn1c(=O)c2cnc(Nc3ccc(N4CCN(C)CC4)cc3)nc2n1-c1cccc(C(C)(C)O)n1 [MK1775] | 13.8
CN(Cc1cnc2nc(N)nc(N)c2n1)c1ccc(C(=O)N[C@@H](CCC(=O)O)C(=O)O)cc1 [Methotrexate] | 2.33
CO[C@@]12[C@H](COC(N)=O)C3=C(C(=O)C(C)=C(N)C3=O)N1C[C@@H]1N[C@@H]12 [Mitomycin C] | 0
CCNC(=O)c1noc(-c2cc(C(C)C)c(O)cc2O)c1-c1ccc(CN2CCOCC2)cc1 [NVP-AUY922] | 0
Cc1cn(-c2cc(NC(=O)c3ccc(C)c(Nc4nccc(-c5cccnc5)n4)c3)cc(C(F)(F)F)c2)cn1 [Nilotinib] | 0
CC[C@H](CO)Nc1nc(NCc2ccccc2)c2ncn(C(C)C)c2n1 [Seliciclib] | 0
O=[N+]([O-])c1ccc2c(c1)S(=O)(=O)C=C2 [Stattic] | 6.1
O=C(CCCCCCC(=O)Nc1ccccc1)NO [Vorinostat] | 0

System: DU-4475
Assay: as above
Details: incubation time: 72 h
In short: as §1

SMILES | drug sensitivity score
CNC(=O)c1ccccc1Sc1ccc2c(/C=C/c3ccccn3)n[nH]c2c1 [Axitinib] | 0
COc1cc(Nc2c(C#N)cnc3cc(OCCCN4CCN(C)CC4)c(OC)cc23)c(Cl)cc1Cl [Bosutinib] | 0
CCN(CC)CCCC(C)Nc1ccnc2cc(Cl)ccc12 (stereo not drawn) [Chloroquine] | 1.64
CC1(COc2ccc3c(c2)ncn3-c2ccc3cccc(N4CCC(N)CC4)c3n2)COC1 [Crenolanib] | 0.612
CC(C)(C)c1nc(-c2cccc(NS(=O)(=O)c3c(F)cccc3F)c2F)c(-c2ccnc(N)n2)s1 [Dabrafenib] | 3.29
Cc1nc(C(=O)NCC(=O)O)c(O)c2ccc(Oc3ccccc3)cc12 [FG-4592] | 0
CC(C)(C)NC(=O)[C@H]1CC[C@H]2[C@@H]3CC[C@H]4NC(=O)C=C[C@]4(C)[C@H]3CC[C@]12C [Finasteride] | 0
Nc1ccn([C@@H]2O[C@H](CO)[C@@H](O)C2(F)F)c(=O)n1 [Gemcitabine] | 0
O=C(O)CNC(=O)c1c(O)c2ccccc2n(Cc2ccccc2)c1=O [IOX-2] | 0
CC(=O)[C@]1(O)Cc2c(O)c3c(c(O)c2[C@@H](O[C@H]2C[C@H](N)[C@H](O)[C@H](C)O2)C1)C(=O)c1ccccc1C3=O [Idarubicin] | 0.488
C/C(=C\c1csc(C)n1)[C@@H]1C[C@@H]2O[C@]2(C)CCC[C@H](C)[C@H](O)[C@@H](C)C(=O)C(C)(C)[C@@H](O)CC(=O)N1 [Ixabepilone] | 0
C=CCn1c(=O)c2cnc(Nc3ccc(N4CCN(C)CC4)cc3)nc2n1-c1cccc(C(C)(C)O)n1 [MK1775] | 0
CN(Cc1cnc2nc(N)nc(N)c2n1)c1ccc(C(=O)N[C@@H](CCC(=O)O)C(=O)O)cc1 [Methotrexate] | 0
CO[C@@]12[C@H](COC(N)=O)C3=C(C(=O)C(C)=C(N)C3=O)N1C[C@@H]1N[C@@H]12 [Mitomycin C] | 0
CCNC(=O)c1noc(-c2cc(C(C)C)c(O)cc2O)c1-c1ccc(CN2CCOCC2)cc1 [NVP-AUY922] | 5.69
Cc1cn(-c2cc(NC(=O)c3ccc(C)c(Nc4nccc(-c5cccnc5)n4)c3)cc(C(F)(F)F)c2)cn1 [Nilotinib] | 0
CC[C@H](CO)Nc1nc(NCc2ccccc2)c2ncn(C(C)C)c2n1 [Seliciclib] | 0
O=[N+]([O-])c1ccc2c(c1)S(=O)(=O)C=C2 [Stattic] | 0
O=C(CCCCCCC(=O)Nc1ccccc1)NO [Vorinostat] | 0

System: HDQ-P1
Assay: as above
Details: incubation time: 72 h
In short: as §1

SMILES | drug sensitivity score
CNC(=O)c1ccccc1Sc1ccc2c(/C=C/c3ccccn3)n[nH]c2c1 [Axitinib] | 0
COc1cc(Nc2c(C#N)cnc3cc(OCCCN4CCN(C)CC4)c(OC)cc23)c(Cl)cc1Cl [Bosutinib] | 3.06
CCN(CC)CCCC(C)Nc1ccnc2cc(Cl)ccc12 (stereo not drawn) [Chloroquine] | 5.48
CC1(COc2ccc3c(c2)ncn3-c2ccc3cccc(N4CCC(N)CC4)c3n2)COC1 [Crenolanib] | 7.06
CC(C)(C)c1nc(-c2cccc(NS(=O)(=O)c3c(F)cccc3F)c2F)c(-c2ccnc(N)n2)s1 [Dabrafenib] | 1.28
Cc1nc(C(=O)NCC(=O)O)c(O)c2ccc(Oc3ccccc3)cc12 [FG-4592] | 0
CC(C)(C)NC(=O)[C@H]1CC[C@H]2[C@@H]3CC[C@H]4NC(=O)C=C[C@]4(C)[C@H]3CC[C@]12C [Finasteride] | 0
Nc1ccn([C@@H]2O[C@H](CO)[C@@H](O)C2(F)F)c(=O)n1 [Gemcitabine] | 0
O=C(O)CNC(=O)c1c(O)c2ccccc2n(Cc2ccccc2)c1=O [IOX-2] | 3.99
CC(=O)[C@]1(O)Cc2c(O)c3c(c(O)c2[C@@H](O[C@H]2C[C@H](N)[C@H](O)[C@H](C)O2)C1)C(=O)c1ccccc1C3=O [Idarubicin] | 0
C/C(=C\c1csc(C)n1)[C@@H]1C[C@@H]2O[C@]2(C)CCC[C@H](C)[C@H](O)[C@@H](C)C(=O)C(C)(C)[C@@H](O)CC(=O)N1 [Ixabepilone] | 0
C=CCn1c(=O)c2cnc(Nc3ccc(N4CCN(C)CC4)cc3)nc2n1-c1cccc(C(C)(C)O)n1 [MK1775] | 9.56
CN(Cc1cnc2nc(N)nc(N)c2n1)c1ccc(C(=O)N[C@@H](CCC(=O)O)C(=O)O)cc1 [Methotrexate] | 0
CO[C@@]12[C@H](COC(N)=O)C3=C(C(=O)C(C)=C(N)C3=O)N1C[C@@H]1N[C@@H]12 [Mitomycin C] | 0.392
